Patent publication US8309790B2, “Animal models for demyelination disorders” (University of Chicago, priority 2005, dated 2012)

Test system: cultured rat oligodendrocytes
Assay: IFN-γ treatment of cultured rat oligodendrocytes (apoptosis, ER stress markers)
Type: cell-based
Method: To test whether apoptosis of oligodendrocytes that is induced by INF-γ affects ER stress, the effect on the morphology, the degree of apoptosis and the expression of ER markers was studied in a culture of oligodendrocyte precursor cells (OPC). Oligodendrocyte progenitors were cultured from neonatal rat brains (Baerwald, et al. (1998) J. Neurosci. Res. 52: 230-239). A mixed glial culture was grown in flasks in medium containing 10% fetal bovine serum (FBS), and when the astrocyte layer became confluent (10-14 days), oligodendrocyte progenitors were separated from astrocytes and microglia using an orbital shaker. Cells, greater than 95% of which were A2B5 positive, GFAP negative and CD11b negative, were cultured in 0.5% FBS containing medium, which also contained PDGF (10 ng/ml) and FGF (5 ng/ml) (both from R&D Systems, Minneapolis, Minn.). Then cells were switched to 0.5% FBS medium without PDGF and FGF for differentiation. After 5 days in the differentiating medium, approximately 40% of cells were positive for myelin protein 2′3′-cyclic nucleotide 3′-phosphodiestaerase (CNP). 70 U/ml recombinant rat IFN-γ (Calbiochem, La Jolla, Calif.) was added to the cells that had been allowed to differentiation for 5 days. After 5 d in the differentiating medium, about 40% of the cells were CNP positive. 70 U/ml of recombinant rat INF-γ (Calbiochem) was added to the cells that had been allowed to differentiate for 5d. To examine the oligodendroglial response to general ER stress-inducing agents, progenitor cells that had been cultured in differentiation medium for 5 or 7 days were treated with 2 μg/ml of tunicamycin (Sigma Aldrich) for 6 hours.
The level of apoptosis of the OPC cells was determined by double staining CNP (1:200; Stemberger Monoclonals, Lutherville, Md.) and TUNEL using the ApopTag Kit (Serologicals Corp., Norcross, […].) and following the manufacturer's instructions. Apoptosis was also evaluated by measuring the activity of caspase-3 in oligodendrocyte lysates using the Fluorimetric Caspase 3 Assay Kit (Sigma, St. Louis, Mo.), according to the manufacturer's instructions.
To determine whether INF-γ affects ER function, the RNA expression of ER markers binding immunoglobulin protein (BIP), CAAT enhancer binding protein homologous protein (CHOP), and caspase 12 was determined using real time PCR. RNA was isolated from cultured cells and mice brain using Trizol reagent (Invitrogen, Carlsbad, Calif.) and treated with DNAaseI (Invitrogen) to eliminate genomic DNA. Reverse transcription was performed using Superscript First Strand Synthesis System for RT-PCR kit (Invitrogen). Real-time PCR was performed with iQ Supermix (Bio-Rad, Hercules, Calif.) on a Bio-Rad iQ real-time PCR detection system (Bio-Rad). The following primers and probes (Integrated DNA Technologies Inc., Coralville, Iowa) for real-time PCR were used: mouse CHOP sense primer […] (SEQ ID NO: 34); mouse CHOP antisense primer […] (SEQ ID NO: 35); CHOP probe […] (SEQ ID NO: 36); mouse BIP sense primer […] (SEQ ID NO: 31); mouse BIP antisense primer […] (SEQ ID NO: 32); BIP probe […] (SEQ ID NO: 33); mouse caspase 12 sense primer […] (SEQ ID NO: 37); and mouse caspase antisense primer […] (SEQ ID NO: 38).
To determine the effect of INF-γ on the level of phosphorylated eIF-2α and caspase 12 proteins, western blot analysis was performed using the following antibodies anti-eIF-2α (1:500; Santa Cruz), anti-p-eIF-2α (1:1000, Cell signaling Technology), anti-caspase-12 (1:500; Santa Cruz) and anti-actin (1:1000; Sigma, St Louis, Mo.), and according to the following protocol. […]

Substance: interferon-γ [IFN-γ]
- caspase-3 activity in the cell lysates (70 U/ml IFN-γ): markedly increased
- apoptosis, TUNEL and CNP double labeling (70 U/ml IFN-γ for 48 h): induced apoptosis in a significant number of oligodendrocytes
- cell morphology (70 U/ml IFN-γ for 48 h, cells differentiated 5 days): abnormal morphological changes
- level of phosphorylated eIF-2α (p-eIF-2α) (70 U/ml IFN-γ, Western blot): significantly elevated
- caspase-12 expression (70 U/ml IFN-γ, real-time PCR): induction of caspase-12 was observed
- levels of mRNA encoding BIP/GRP78 and CHOP/GADD153 (70 U/ml IFN-γ, real-time PCR): 2 to 3 times
- level of the active fragment of caspase-12 (after 48 h of IFN-γ treatment, Western blot): strongly elevated
